Results taken from patent publication US20100093776A1, “Organic Compounds and Their Uses” (Novartis AG, priority 2006, published 2010).

Tests used:
neointima formation = conditions: rats; cited from earlier work
CDK1/cyclinB = target: T1, CDK1/cyclinB (Homo sapiens, UniProt P06493); assay: CDK1/cyclinB IMAP fluorescence polarization kinase assay; format: biochemical; conditions: 52 μM ATP, two hours at room temperature
T1 construct: purchased Millipore
Method: (§1) Kinase assays were performed on recombinant purified enzymes using the non-radioactive IMAP fluorescence polarization assay format.
(§2) Compound stocks were prepared and diluted in DMSO and were added to kinase reactions at a 1/100 dilution for a final concentration of 1% DMSO. The components were added together to final concentrations listed in the tables below and incubated for two hours at room temperature.
(§3) The reactions were stopped by addition of stop solution.
(§4) CDK9/CDK1/CDK7: final stop concentration is 1× Developer buffer (85% A/15% B), IMAP beads 1/400
(§5) The samples were allowed to incubate for one more hour at room temperature and then the fluorescence polarization was measured. The plate normalized millipolarization (mP) values were plotted against the log of compound concentration for each compound and IC50 values were calculated using the spotfire IC50 calculator and confirmed by visual analysis.

CDK4 = CDK4 (Homo sapiens, UniProt P11802); assay: CDK4 kinase assay (IMAP fluorescence polarization); format: biochemical
Method: as §1, §2, §5

CDK5 = CDK5 (Homo sapiens, UniProt Q00535); assay: CDK5 kinase assay (IMAP fluorescence polarization); format: biochemical
Method: as §1, §2, §5

CDK7/cyclinH/MAT1 = target: T2, CDK7/cyclinH/MAT1 (Homo sapiens, UniProt P50613); assay: CDK7/cyclinH/Mat1 IMAP fluorescence polarization kinase assay; format: biochemical; conditions: 8.09 μM ATP, two hours at room temperature
T2 construct: purchased Millipore
Method: as §1, §2, §3, §4, §5

CDK9/cyclinT1 = target: T3, CDK9/cyclinT1 (Homo sapiens, UniProt P50750); assay: CDK9/cyclinT1 IMAP fluorescence polarization kinase assay; format: biochemical; conditions: 6 μM ATP, two hours at room temperature
T3 construct: purchased Millipore
Method: as §1, §2, §3, §4, §5

[1] = tested on: RNA polymerase II CTD serine2 phosphorylation in Hep3B cells; assay: H5 (Ser2) Ab High Content Screen: RNA polymerase II CTD serine2 phosphorylation Assay; format: cell-based; conditions: Homo sapiens, compounds for 2 hours, H5 antibody nuclear staining
Method: H5 (also referred as Ser2) Ab High Content Screen: RNA polymerase II CTD serine2 phosphorylation Assay
1. Cells are plated into 384 well plates: 30 μl of Hep3B cells (4,000 cells/30 μl) in DMEM with 3% FBS are plated into wells of a tissue culture treated clear bottomed 384 well plate. Cells are allowed to adhere during an overnight incubation.
2. Cells are treated with compounds for two hours: 10 μl of DMEM with 3% FBS is added to each well with a final concentration of DMSO equal to 1%. Cells are incubated with compounds for 2 hours.
3. Cells are fixed and permeabilized. Cells are washed with 30 mM HEPES pH=7.3 then fixed in 4% paraformaldehyde in 30 mM HEPES pH=7.3 for one hour at room temperature. The fix is removed by washing the cells with Tris buffered saline (TBS) and the cells are permeabilized by incubation in TBS with 0.5% triton X-100 for 30 minutes at room temperature. Triton is removed by washing the cells with TBS.
4. Cells are stained with H5 monoclonal antibody and nuclei are stained with Hoechst dye 33342: Block cells by incubating in TBS with 1% Bovine serum albumin (BSA) for one hour at room temperature. Incubate primary H5 Ab (1/250) overnight at 4 degrees in PBS with 1% BSA and 0.1% Tween-20. The next day wash cells with TBS. Add secondary antibody, anti-IgM labeled with cy5 (1/450), and Hoecsht dye 33342 (10 μg/ml) in TBS with 1% BSA and incubate one hour at room temperature. Wash cells with PBS.
5. Measure staining using the In-cell Analyzer system from GE Healthcare. Nuclei were located using the Hoecsht 33342 dye signal and H5 Antibody staining was quantified by measuring cy5 label. Nuclear intensity of H5 staining was plotted against the log of compound concentration for each compound and IC-50 values were calculated using the spotfire IC-50 calculator and confirmed by visual analysis.

CDK2/cyclinA = target: T4, CDK2/cyclinA (Homo sapiens, UniProt P24941); assay: CDK2/cyclinA IMAP fluorescence polarization kinase assay; format: biochemical; conditions: 4.68 μM ATP, two hours at room temperature
T4 construct: purchased Millipore
Method: as §1, §2, §3
CDK2: final stop concentration is 1× Developer buffer (100% A), IMAP beads 1/400
as §5

T3 sequence (P50750 whole entry): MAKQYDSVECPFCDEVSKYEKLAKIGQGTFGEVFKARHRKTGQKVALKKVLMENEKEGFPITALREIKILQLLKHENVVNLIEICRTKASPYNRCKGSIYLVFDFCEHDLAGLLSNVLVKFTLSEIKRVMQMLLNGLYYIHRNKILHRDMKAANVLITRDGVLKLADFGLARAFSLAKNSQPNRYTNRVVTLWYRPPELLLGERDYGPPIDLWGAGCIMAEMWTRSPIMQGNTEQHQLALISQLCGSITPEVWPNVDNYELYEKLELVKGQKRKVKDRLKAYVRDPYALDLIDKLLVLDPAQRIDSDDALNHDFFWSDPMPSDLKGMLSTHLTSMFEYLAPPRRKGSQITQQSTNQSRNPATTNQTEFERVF
T3 sequence (O60563 whole entry partner): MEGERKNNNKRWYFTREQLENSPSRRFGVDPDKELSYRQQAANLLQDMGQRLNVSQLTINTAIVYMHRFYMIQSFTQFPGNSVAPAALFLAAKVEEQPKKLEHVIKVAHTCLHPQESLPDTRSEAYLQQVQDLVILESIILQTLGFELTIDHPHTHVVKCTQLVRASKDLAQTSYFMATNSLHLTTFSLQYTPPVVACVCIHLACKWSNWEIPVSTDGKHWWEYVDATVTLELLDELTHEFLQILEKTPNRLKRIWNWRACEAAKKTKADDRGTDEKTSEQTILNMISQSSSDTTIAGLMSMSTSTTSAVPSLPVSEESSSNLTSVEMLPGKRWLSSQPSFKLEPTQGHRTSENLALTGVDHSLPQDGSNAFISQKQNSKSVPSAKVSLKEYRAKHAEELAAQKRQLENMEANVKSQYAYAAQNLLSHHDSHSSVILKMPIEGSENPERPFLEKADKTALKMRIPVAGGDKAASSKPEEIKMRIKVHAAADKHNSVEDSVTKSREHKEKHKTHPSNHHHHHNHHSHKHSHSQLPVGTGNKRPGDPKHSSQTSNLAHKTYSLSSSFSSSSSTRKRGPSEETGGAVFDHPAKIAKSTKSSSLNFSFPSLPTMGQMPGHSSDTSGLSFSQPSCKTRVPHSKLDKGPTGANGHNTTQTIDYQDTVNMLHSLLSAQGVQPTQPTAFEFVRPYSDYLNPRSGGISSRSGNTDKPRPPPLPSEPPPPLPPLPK
T2 sequence (P50613 whole entry): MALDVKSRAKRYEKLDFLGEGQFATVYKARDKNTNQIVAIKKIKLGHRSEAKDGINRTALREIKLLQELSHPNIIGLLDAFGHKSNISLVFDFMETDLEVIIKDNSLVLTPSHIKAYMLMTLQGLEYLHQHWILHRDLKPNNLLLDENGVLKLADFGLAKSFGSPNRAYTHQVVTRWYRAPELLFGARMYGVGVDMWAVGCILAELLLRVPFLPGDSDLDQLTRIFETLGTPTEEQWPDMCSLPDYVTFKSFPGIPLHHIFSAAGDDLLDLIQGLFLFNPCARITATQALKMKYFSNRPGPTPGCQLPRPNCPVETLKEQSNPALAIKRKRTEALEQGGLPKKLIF
T2 sequence (P51946 whole entry partner): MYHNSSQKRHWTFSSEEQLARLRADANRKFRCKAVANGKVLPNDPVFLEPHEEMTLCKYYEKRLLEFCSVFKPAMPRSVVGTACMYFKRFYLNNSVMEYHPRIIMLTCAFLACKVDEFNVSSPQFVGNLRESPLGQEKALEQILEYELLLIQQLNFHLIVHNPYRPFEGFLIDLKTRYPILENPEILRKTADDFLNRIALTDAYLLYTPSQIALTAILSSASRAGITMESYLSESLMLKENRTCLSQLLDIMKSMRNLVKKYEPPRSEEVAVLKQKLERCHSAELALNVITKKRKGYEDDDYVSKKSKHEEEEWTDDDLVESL
T2 sequence (P51948 whole entry partner): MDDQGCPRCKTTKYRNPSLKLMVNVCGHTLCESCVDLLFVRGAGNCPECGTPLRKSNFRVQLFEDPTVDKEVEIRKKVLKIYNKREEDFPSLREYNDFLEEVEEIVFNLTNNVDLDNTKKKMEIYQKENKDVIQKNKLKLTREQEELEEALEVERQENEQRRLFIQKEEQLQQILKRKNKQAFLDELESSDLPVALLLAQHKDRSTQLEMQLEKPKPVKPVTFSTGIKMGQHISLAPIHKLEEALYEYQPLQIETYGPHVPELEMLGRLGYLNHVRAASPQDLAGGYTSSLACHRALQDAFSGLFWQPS
T1 sequence (P06493 whole entry): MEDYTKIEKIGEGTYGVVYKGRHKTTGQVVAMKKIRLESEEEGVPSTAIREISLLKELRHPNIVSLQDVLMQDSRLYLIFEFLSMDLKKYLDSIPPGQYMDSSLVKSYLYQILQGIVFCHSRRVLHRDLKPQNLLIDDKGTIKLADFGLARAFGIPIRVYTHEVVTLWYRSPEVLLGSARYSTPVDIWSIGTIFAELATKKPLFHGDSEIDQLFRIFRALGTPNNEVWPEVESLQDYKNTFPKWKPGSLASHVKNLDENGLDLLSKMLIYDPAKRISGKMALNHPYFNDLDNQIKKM
T1 sequence (P14635 whole entry partner): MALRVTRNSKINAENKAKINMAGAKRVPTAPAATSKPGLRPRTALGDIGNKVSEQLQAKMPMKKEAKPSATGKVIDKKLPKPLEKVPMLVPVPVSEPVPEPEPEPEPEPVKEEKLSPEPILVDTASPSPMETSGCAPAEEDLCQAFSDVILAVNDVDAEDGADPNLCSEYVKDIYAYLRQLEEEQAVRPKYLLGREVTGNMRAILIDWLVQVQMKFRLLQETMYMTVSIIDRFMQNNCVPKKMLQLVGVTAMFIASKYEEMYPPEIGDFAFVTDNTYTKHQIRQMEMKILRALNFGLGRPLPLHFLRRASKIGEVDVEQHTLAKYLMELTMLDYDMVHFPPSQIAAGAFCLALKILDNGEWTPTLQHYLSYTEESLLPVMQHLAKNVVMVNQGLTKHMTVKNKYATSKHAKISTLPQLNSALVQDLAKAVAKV
Chain of CDK4 (P11802 whole entry, species assumed): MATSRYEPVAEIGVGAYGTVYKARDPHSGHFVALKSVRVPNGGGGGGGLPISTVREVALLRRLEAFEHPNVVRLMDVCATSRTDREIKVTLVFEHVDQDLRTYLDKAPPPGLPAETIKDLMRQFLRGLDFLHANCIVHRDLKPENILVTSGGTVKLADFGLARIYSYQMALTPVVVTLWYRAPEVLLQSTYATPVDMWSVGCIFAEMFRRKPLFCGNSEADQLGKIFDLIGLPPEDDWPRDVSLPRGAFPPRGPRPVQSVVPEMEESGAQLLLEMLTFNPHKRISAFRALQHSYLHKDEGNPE
Chain of CDK4 (P24385 whole entry partner, species assumed): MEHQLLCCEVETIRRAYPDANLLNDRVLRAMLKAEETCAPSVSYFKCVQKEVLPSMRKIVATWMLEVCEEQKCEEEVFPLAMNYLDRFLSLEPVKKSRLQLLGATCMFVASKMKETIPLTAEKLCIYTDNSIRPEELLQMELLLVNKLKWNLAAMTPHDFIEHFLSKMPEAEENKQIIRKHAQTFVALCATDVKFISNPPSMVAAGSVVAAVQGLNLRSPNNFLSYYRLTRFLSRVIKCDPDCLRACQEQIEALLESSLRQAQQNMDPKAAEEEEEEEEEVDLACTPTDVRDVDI
Chain of CDK5 (Q00535 whole entry, species assumed): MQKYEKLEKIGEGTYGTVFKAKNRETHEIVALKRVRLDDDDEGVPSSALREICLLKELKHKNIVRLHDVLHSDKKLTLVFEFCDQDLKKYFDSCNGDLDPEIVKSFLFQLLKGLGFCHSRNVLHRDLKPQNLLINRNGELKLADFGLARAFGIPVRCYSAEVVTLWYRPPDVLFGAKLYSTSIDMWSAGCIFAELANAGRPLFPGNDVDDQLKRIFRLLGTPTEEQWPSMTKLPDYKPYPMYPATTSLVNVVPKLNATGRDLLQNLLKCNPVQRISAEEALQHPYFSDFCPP
Chain of CDK5 (Q15078 whole entry partner, species assumed): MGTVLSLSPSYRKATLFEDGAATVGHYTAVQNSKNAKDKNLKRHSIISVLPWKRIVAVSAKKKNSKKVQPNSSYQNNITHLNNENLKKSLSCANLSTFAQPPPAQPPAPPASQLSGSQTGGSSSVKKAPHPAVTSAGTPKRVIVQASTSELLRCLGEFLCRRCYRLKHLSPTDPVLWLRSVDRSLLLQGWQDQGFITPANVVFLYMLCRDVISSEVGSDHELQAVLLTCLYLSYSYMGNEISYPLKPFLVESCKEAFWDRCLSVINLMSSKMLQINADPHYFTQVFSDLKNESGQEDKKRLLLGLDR

SMILES | IC50 (CDK1/cyclinB) | IC50 (CDK4) | IC50 (CDK5) | IC50 (CDK7/cyclinH/MAT1) | IC50 (CDK9/cyclinT1) | IC50 [1] | IC50 (CDK2/cyclinA) | inhibition of neointima formation (neointima formation)
COc1ccc(CNc2nc(N(CCO)CCO)nc3c2ncn3C(C)C)cc1 [CVT-313] |  |  |  |  |  |  |  | greater than 80%
Clc1cccc(Nc2nccc(-c3cccc4[nH]ccc34)n2)c1 [Compound 1, (3-Chloro-phenyl)-[4-(1H-indol-4-yl)-pyrimidin-2-yl]-amine] | < 5 µM | 5 to 15 µM | < 5 µM | > 50 µM | < 5 µM | < 5 µM |  | 

Now from value to molecule, other results behind:

IC50 (CDK1/cyclinB) | IC50 (CDK4) | IC50 (CDK5) | IC50 (CDK7/cyclinH/MAT1) | IC50 (CDK9/cyclinT1) | IC50 [1] | IC50 (CDK2/cyclinA) | SMILES | inhibition of neointima formation (neointima formation)
< 5 µM | < 5 µM | < 5 µM | < 5 µM | < 5 µM | < 5 µM | < 5 µM | CS(=O)(=O)c1cccc(Nc2nccc(-c3cccc4[nH]ccc34)n2)c1 [Compound 2, [4-(1H-Indol-4-yl)-pyrimidin-2-yl]-(3-methanesulfonyl-phenyl)-amine] | 
> 50 µM |  |  | > 50 µM | < 5 µM | < 5 µM |  | CCNC(=O)Cn1ccc2c(-c3ccnc(Nc4cccc(Cl)c4)n3)cccc21 [Compound 13, 2-{4-[2-(3-Chloro-phenylamino)-pyrimidin-4-yl]-indol-1-yl}-N-ethyl-acetamide] | 
< 5 µM | 5 to 15 µM | < 5 µM | < 5 µM | < 5 µM | < 5 µM | < 5 µM | Cc1cnc(Nc2cccc(S(C)(=O)=O)c2)nc1-c1cccc2[nH]ccc12 [Compound 31, [4-(1H-Indol-4-yl)-5-methyl-pyrimidin-2-yl]-(3-methanesulfonyl-phenyl)-amine] | 
